# Results reported in patent US20240199647A1, “ANTI-VIRAL COMPOUNDS” (Aligos Therapeutics, Inc., priority 2022, published 2024).
# Like-named read-outs stand apart in the source and are kept apart here.
# How the values were obtained:
# in vitro = details: human
# [1] = Cytotoxicity in HeLa cells without addition of OC43 virus (in parallel); details: human, HeLa cells, without OC43 virus
# [2] = tested on: SARS-CoV-2 B.1.1.7 lineage; test: microbe, parasite or virus in culture; type: cell-based; details: Severe acute respiratory syndrome coronavirus 2, Table C, SARS-CoV-2 B.1.1.7 in A549-dual_ACE2_TMPRSS2 cells, read-out: A549-dual_ACE2_TMPRSS2 (EC50)
# [3] = tested on: human beta-coronavirus OC43; test: OC43 Coronavirus Assay in HeLa cells (antiviral, cytopathic effect, cell-titer-glo); type: cell-based; details: Betacoronavirus 1, OC43, HeLa, Table B, OC43 coronavirus in HeLa cells, read-out: EC50
# SARS-Cov-2 3CLpro = SARS-Cov-2 3CLpro (Severe acute respiratory syndrome coronavirus 2, UniProt P0DTD1); test: biochemical; details: Table A, class symbols, read-out: SARS-Cov-2 (IC50)
smiles,measurement,setting,value
"CN(C(=O)[C@H](CC1CC1)n1cc(C2CC2)nn1)[C@@H](CC1CC1)C(=O)N1C[C@@]2(C[C@H]1C#N)Oc1cc(F)cc(F)c1NC2=O [Compound 108, (S)—N—((S)-1-((2R,5'S)-5′-cyano-5,7-difluoro-3-oxo-3,4-dihydrospiro[benzo[b][1,4]oxazine-2,3′-pyrrolidin]-1′-yl)-3-cyclopropyl-1-oxopropan-2-yl)-3-cyclopropyl-2-(4-cyclopropyl-1H-1,2,3-triazol-1-yl)-N-methylpropanamide]",CC50,in vitro,> 1000 nM
same,CC50 at 6 days,[1],> 10000 nM
same,EC50,[2]; class symbols,< 100 nM
same,EC50,[3]; class symbols,100 to 1000 nM
same,IC50,SARS-Cov-2 3CLpro,< 20 nM
C[C@H](NC(=O)C(F)(F)F)C(=O)N(C)[C@@H](CC1CC1)C(=O)N1C[C@]2(C[C@H]1C#N)C(=O)NCC2Oc1ccccc1 (some centres unmarked) [Compound 104],CC50,in vitro,> 1000 nM
same,CC50 at 6 days,[1],> 10000 nM
same,EC50,[2]; class symbols,100 to 1000 nM
same,EC50,[3]; class symbols,< 100 nM
same,IC50,SARS-Cov-2 3CLpro,20 to 200 nM
CN(C(=O)c1cc2cccc(Cl)c2[nH]1)[C@@H](CC1CC1)C(=O)N1C[C@@]2(C[C@H]1C#N)Oc1cc(F)cc(F)c1NC2=O [Compound 133],CC50,in vitro,> 1000 nM
same,CC50 at 6 days,[1],> 10000 nM
same,EC50,[2]; class symbols,100 to 1000 nM
same,EC50,[3]; class symbols,100 to 1000 nM
same,IC50,SARS-Cov-2 3CLpro,< 20 nM
CN(C(=O)[C@H](CC1(C)CC1)NC(=O)C(F)(F)F)[C@@H](CC1(C)CC1)C(=O)N1C[C@@]2(C[C@H]1C#N)Oc1cccnc1NC2=O [Compound 215],CC50,in vitro,> 1000 nM
same,CC50 at 6 days,[1],> 10000 nM
same,EC50,[2]; class symbols,< 100 nM
same,EC50,[3]; class symbols,< 100 nM
same,IC50,SARS-Cov-2 3CLpro,< 20 nM
"CC(C)C[C@@H](C(=O)N1C[C@]2(C[C@H]1C#N)OC(=O)Nc1ccccc12)N(C)C(=O)c1cc2c(F)cc(F)cc2[nH]1 [Example 5, N—((S)-1-((4R,5'S)-5′-cyano-2-oxo-1,2-dihydrospiro[benzo[d][1,3]oxazine-4,3′-pyrrolidin]-1′-yl)-4-methyl-1-oxopentan-2-yl)-4,6-difluoro-N-methyl-1H-indole-2-carboxamide]",CC50,in vitro,> 1000 nM
same,CC50 at 6 days,[1],> 10000 nM
same,EC50,[2]; class symbols,1000 to 10000 nM
same,EC50,[3]; cells given as a bound,> 1000 nM
same,IC50,SARS-Cov-2 3CLpro,200 to 2000 nM
CC(C)C[C@@H](C(=O)N1C[C@@]2(C[C@H]1C#N)Oc1cc(Cl)cc(F)c1NC2=O)N(C)C(=O)[C@H](C)NC(=O)C(F)(F)F [Compound 58],CC50,in vitro,> 1000 nM
same,CC50 at 6 days,[1],> 10000 nM
same,EC50,[2]; class symbols,100 to 1000 nM
same,EC50,[3]; class symbols,100 to 1000 nM
same,IC50,SARS-Cov-2 3CLpro,< 20 nM
CN(C(=O)[C@H](COCc1ccccc1)NC(=O)C(F)(F)F)[C@@H](CC1CC1)C(=O)N1C[C@@]2(C[C@H]1C#N)Oc1cccnc1NC2=O [Compound 191],CC50,in vitro,> 1000 nM
same,CC50 at 6 days,[1],> 10000 nM
same,EC50,[2]; class symbols,100 to 1000 nM
same,EC50,[3]; class symbols,< 100 nM
same,IC50,SARS-Cov-2 3CLpro,< 20 nM
CN(C(=O)c1cnc(C(F)(F)F)[nH]1)[C@@H](CC1CC1)C(=O)N1C[C@@]2(C[C@H]1C#N)Oc1cc(F)cc(F)c1NC2=O [Compound 171],CC50,in vitro,> 1000 nM
same,CC50 at 6 days,[1],> 10000 nM
same,EC50,[2]; cells given as a bound,> 1000 nM
same,EC50,[3]; class symbols,1000 to 10000 nM
same,IC50,SARS-Cov-2 3CLpro,20 to 200 nM
"CC(C)C[C@@H](C(=O)N1C[C@@]2(C[C@H]1C#N)Oc1ccccc1NC2=O)N(C)C(=O)[C@H](C)NC(=O)C(F)(F)F [Example 1, (S)—N—((S)-1-((2R,5′S)-5′-cyano-3-oxo-3,4-dihydrospiro[benzo[b][1,4]oxazine-2,3′-pyrrolidin]-1′-yl)-4-methyl-1-oxopentan-2-yl)-N-methyl-2-(2,2,2-trifluoroacetamido)propanamide]",CC50,in vitro,> 1000 nM
same,CC50 at 6 days,[1],> 10000 nM
same,EC50,[2]; class symbols,< 100 nM
same,EC50,[3]; class symbols,< 100 nM
same,IC50,SARS-Cov-2 3CLpro,< 20 nM
"CC(C)C[C@@H](C(=O)N1C[C@]2(CC(c3ccccc3)=NNC2=O)C[C@H]1C#N)N(C)C(=O)[C@H](C)NC(=O)C(F)(F)F [Example 29, (S)—N—((S)-1-((3S,5R)-3-cyano-6-oxo-9-phenyl-2,7,8-triazaspiro[4.5]dec-8-en-2-yl)-4-methyl-1-oxopentan-2-yl)-N-methyl-2-(2,2,2-trifluoroacetamido)propanamide]",CC50,in vitro,> 1000 nM
same,CC50 at 6 days,[1],> 10000 nM
same,EC50,[2]; class symbols,100 to 1000 nM
same,EC50,[3]; class symbols,1000 to 10000 nM
same,IC50,SARS-Cov-2 3CLpro,20 to 200 nM
CN(C(=O)[C@H](CC1CC1)n1cc(C(F)(F)F)nn1)[C@@H](CC1CC1)C(=O)N1C[C@@]2(C[C@H]1C#N)Oc1cc(F)cc(F)c1NC2=O [Compound 157],CC50,in vitro,> 1000 nM
same,CC50 at 6 days,[1],> 10000 nM
same,EC50,[2]; class symbols,< 100 nM
same,EC50,[3]; class symbols,< 100 nM
same,IC50,SARS-Cov-2 3CLpro,< 20 nM
CCC1C[C@@]2(C[C@@H](C#N)N(C(=O)[C@H](CC(C)C)N(C)C(=O)[C@H](C)NC(=O)C(F)(F)F)C2)C(=O)N1 (some centres unmarked) [Compound 23],CC50,in vitro,> 1000 nM
same,CC50 at 6 days,[1],> 10000 nM
same,EC50,[2]; class symbols,100 to 1000 nM
same,EC50,[3]; class symbols,100 to 1000 nM
same,IC50,SARS-Cov-2 3CLpro,< 20 nM
C[C@H](NC(=O)C(F)(F)F)C(=O)N(C)[C@H](C(=O)N1C[C@@]2(C[C@H]1C#N)Oc1cc(F)cc(F)c1NC2=O)[C@@H](C)OC(C)(C)C [Compound 154],CC50,in vitro,> 1000 nM
same,CC50 at 6 days,[1],> 10000 nM
same,EC50,[2]; cells given as a bound,> 1000 nM
same,EC50,[3]; class symbols,1000 to 10000 nM
same,IC50,SARS-Cov-2 3CLpro,200 to 2000 nM
"CN(C(=O)[C@H](CC1CC1)NC(=O)C(F)(F)F)C(CC1CC1)C(=O)N1C[C@@]2(C[C@H]1C#N)Oc1cc(S(C)(=O)=O)ccc1NC2=O (stereo in doubt) [Compound 110, (S)—N—((S)-1-((2R,5'S)-5′-cyano-7-(methylsulfonyl)-3-oxo-3,4-dihydrospiro[benzo[b][1,4]oxazine-2,3′-pyrrolidin]-1′-yl)-3-cyclopropyl-1-oxopropan-2-yl)-3-cyclopropyl-N-methyl-2-(2,2,2-trifluoroacetamido)propanamide]",CC50,in vitro,> 1000 nM
same,CC50 at 6 days,[1],> 10000 nM
same,EC50,[2]; cells given as a bound,> 1000 nM
same,EC50,[3]; class symbols,< 100 nM
same,IC50,SARS-Cov-2 3CLpro,< 20 nM
CN(C(=O)[C@H](COC(C)(C)C)NC(=O)C(F)(F)F)[C@@H](CC1CC1)C(=O)N1C[C@@]2(C[C@H]1C#N)Oc1cc(F)cc(F)c1NC2=O [Compound 158],CC50,in vitro,> 1000 nM
same,CC50 at 6 days,[1],> 10000 nM
same,EC50,[2]; class symbols,< 100 nM
same,EC50,[3]; class symbols,< 100 nM
same,IC50,SARS-Cov-2 3CLpro,< 20 nM
CC(C)C[C@@H](C(=O)N1C[C@@]2(C[C@H]1C#N)Oc1cc(F)cc(F)c1NC2=O)N(C)C(=O)[C@H](CC(C)(C)F)NC(=O)C(F)(F)F [Compound 64],CC50,in vitro,> 1000 nM
same,CC50 at 6 days,[1],> 10000 nM
same,EC50,[2]; class symbols,100 to 1000 nM
same,EC50,[3]; class symbols,< 100 nM
same,IC50,SARS-Cov-2 3CLpro,< 20 nM
C[C@H](NC(=O)C(F)(F)F)C(=O)N(C)[C@@H](CC1CC1)C(=O)N1C[C@@]2(C[C@H]1C#N)Oc1cc(F)cnc1NC2=O [Compound 144],CC50,in vitro,> 1000 nM
same,CC50 at 6 days,[1],> 10000 nM
same,EC50,[2]; class symbols,100 to 1000 nM
same,EC50,[3]; class symbols,< 100 nM
same,IC50,SARS-Cov-2 3CLpro,< 20 nM
"CN(C(=O)[C@H](CC1CC1)NC(=O)C(F)(F)F)[C@@H](CC1CC1)C(=O)N1C[C@]2(C[C@H]1C#N)C(=O)Nc1nccn12 [Example 31, (2S)—N-[(2S)-1-[(3R,5'S)-5′-cyano-2-oxo-1H-spiro[[1,3]diazolo[1,2-a]imidazole-3,3′-pyrrolidin]-1′-yl]-3-cyclopropyl-1-oxopropan-2-yl]-3-cyclopropyl-N-methyl-2-(2,2,2-trifluoroacetamido)propanamide]",CC50,in vitro,> 1000 nM
same,CC50 at 6 days,[1],> 10000 nM
same,EC50,[2]; cells given as a bound,> 1000 nM
same,EC50,[3]; cells given as a bound,> 10000 nM
same,IC50,SARS-Cov-2 3CLpro,20 to 200 nM
C[C@H](NC(=O)C(F)(F)F)C(=O)N(C)[C@@H](CC1CC1)C(=O)N1C[C@@]2(C[C@H]1C#N)Oc1ccccc1CNC2=O [Compound 163],CC50,in vitro,> 1000 nM
same,CC50 at 6 days,[1],> 10000 nM
same,EC50,[2]; class symbols,100 to 1000 nM
same,EC50,[3]; class symbols,< 100 nM
same,IC50,SARS-Cov-2 3CLpro,< 20 nM
C[C@H](NC(=O)c1ccc(F)cc1)C(=O)N(C)[C@@H](CC1CC1)C(=O)N1C[C@@]2(C[C@H]1C#N)Oc1cccnc1NC2=O [Compound 195],CC50,in vitro,> 1000 nM
same,CC50 at 6 days,[1],> 10000 nM
same,EC50,[2]; class symbols,100 to 1000 nM
same,EC50,[3]; class symbols,100 to 1000 nM
same,IC50,SARS-Cov-2 3CLpro,< 20 nM
CN(C(=O)[C@H](CC(F)F)NC(=O)C(F)(F)F)[C@@H](CC1CC1)C(=O)N1C[C@@]2(C[C@H]1C#N)Oc1cc(F)cc(F)c1NC2=O [Compound 86],CC50,in vitro,> 1000 nM
same,CC50 at 6 days,[1],> 10000 nM
same,EC50,[2]; class symbols,< 100 nM
same,EC50,[3]; class symbols,100 to 1000 nM
same,IC50,SARS-Cov-2 3CLpro,< 20 nM
C[C@H](NC(=O)C(F)(F)F)C(=O)N(C)[C@@H](CC1CC1)C(=O)N1C[C@@]2(C[C@H]1C#N)Oc1cccnc1NC2=O [Compound 84],CC50,in vitro,> 1000 nM
same,CC50 at 6 days,[1],> 10000 nM
same,EC50,[2]; class symbols,< 100 nM
same,EC50,[3]; class symbols,1000 to 10000 nM
same,IC50,SARS-Cov-2 3CLpro,< 20 nM
C[C@H](NC(=O)C1(F)CC1)C(=O)N(C)[C@@H](CC1CC1)C(=O)N1C[C@@]2(C[C@H]1C#N)Oc1cccnc1NC2=O [Compound 169],CC50,in vitro,> 1000 nM
same,CC50 at 6 days,[1],> 10000 nM
same,EC50,[2]; class symbols,100 to 1000 nM
same,EC50,[3]; class symbols,< 100 nM
same,IC50,SARS-Cov-2 3CLpro,< 20 nM
"Cc1cc2n(n1)[C@@]1(C[C@@H](C#N)N(C(=O)[C@H](CC(C)C)N(C)C(=O)[C@H](C)NC(=O)C(F)(F)F)C1)C(=O)N2 [Example 44, (S)—N—((S)-1-((3R,5'S)-5′-cyano-6-methyl-2-oxo-1,2-dihydrospiro[imidazo[1,2-b]pyrazole-3,3′-pyrrolidin]-1′-yl)-4-methyl-1-oxopentan-2-yl)-N-methyl-2-(2,2,2-trifluoroacetamido)propanamide]",CC50,in vitro,> 1000 nM
same,CC50 at 6 days,[1],> 10000 nM
same,EC50,[2]; cells given as a bound,> 1000 nM
same,EC50,[3]; class symbols,100 to 1000 nM
same,IC50,SARS-Cov-2 3CLpro,20 to 200 nM
CC(C)C[C@@H](C(=O)N1C[C@@]2(C[C@H]1C#N)Oc1cc(F)c(F)cc1NC2=O)N(C)C(=O)[C@H](C)NC(=O)C(F)(F)F [Compound 48],CC50,in vitro,> 1000 nM
same,CC50 at 6 days,[1],> 10000 nM
same,EC50,[2]; class symbols,100 to 1000 nM
same,EC50,[3]; class symbols,100 to 1000 nM
same,IC50,SARS-Cov-2 3CLpro,< 20 nM
